These results are taken from patent US20180245049A1, “METHOD FOR INDUCING DIFFERENTIATION OF STEM CELLS” (STICHTING KATHOLIEKE UNIVERSITEIT, priority 2015, published 2018).

For data set [1], the system named is hMSCs. Description: Lineage commitment and differentiation of gel-encapsulated hMSCs in bipotential differentiation medium (STRO-1, Osterix, Oil-red O staining). In kind it is cell-based, human. As to the method: Cell Culture. Human Mesenchymal Stem Cells (hMSCs) were obtained from Lonza, Inc. (Switzerland). Cells were then cultured in α-MEM medium (lnvitrogen) supplemented with 10% fetal bovine serum (FBS), 1% penicillin/streptomycin and incubated in a humidified atmosphere containing 5% (v/v) CO2 at 37° C. For the encapsulation of cells in the gels, first, the cell pellets were obtained by centrifugation. Then 500 μL of the cold polymer solution (˜10° C.) was added directly to the pellet, followed by a gentle pipetting up and down 3-4 times to ensure a homogeneous mixture that was directly put onto a cover slip in a 6-well plate (also kept cold). Thereafter, the solution was sandwiched between two cover slips and the well plate was transferred to a 37° C. incubator. The volume of the suspension was chosen (500 μL) in order to obtain hydrogel thickness in the range of 3 mm. […] Afterwards, the gel becomes stiffer with time and attains the final stiffness in 2-3 minutes. This favors the supporting of cells in 3D rather than the cells settling at the bottom. After gel formation, the two cover slips were removed and α-MEM medium (without serum) was added. All cell culture experiments were carried out without any serum in the medium for the first 6 h of culture. Then, α-MEM medium with 10% serum was added. All cells were used at low passage numbers (≤passage 4), were subconfluently cultured and were seeded at 10^6 cells/mL for the purpose of the experiments and in order to avoid cell-cell contacts. The lineage commitment and differentiation of the gel encapsulated hMSCs after 96 h and 3 weeks of culture, respectively, were investigated with bipotential differentiation medium (1:1 v/v osteogenic and adipogenic media, Lonza). For all the experiments, a non-functionalized soft polymer gel (cell culture in growth medium) served as control. […] The pharmacological agents used were 50 μM Blebbistatin (EMD Biosciences-Calbiochem), 1 μM cytochalasin D (Sigma) and 50 nM Taxol (Abcam). The hMSCs were exposed to each pharmacological agent for 1 h, 24 h and 72 h, respectively, after seeding on a modified polymer. For antibody inhibition studies, cells were preincubated with 5 ng/mL anti-α1, 2, 3 and 5-β1, 2 (all from Santa Cruz Biotechnology). For competition experiments with soluble RGD peptides, the cells were incubated in 1 mL of cell culture media containing 200 μg of RGDS peptides during 20 min on plastic and then transferred to the polymer gels. To evaluate proliferation, total double-stranded DNA content was determined by using the PicoGreen assay as previously reported.
Immunostaining. […]

Data set [2] deals with hMSCs. Description: Live/dead assay (calcein-AM and MTT) of gel-encapsulated cells. In kind it is cell-based, human. As to conditions: live/dead assay after 48 h and 96 h of culture, 50 nM. As to the method: Cell Culture. Human Mesenchymal Stem Cells (hMSCs) were obtained from Lonza, Inc. (Switzerland). Cells were then cultured in α-MEM medium (lnvitrogen) supplemented with 10% fetal bovine serum (FBS), 1% penicillin/streptomycin and incubated in a humidified atmosphere containing 5% (v/v) CO2 at 37° C. For the encapsulation of cells in the gels, first, the cell pellets were obtained by centrifugation. Then 500 μL of the cold polymer solution (˜10° C.) was added directly to the pellet, followed by a gentle pipetting up and down 3-4 times to ensure a homogeneous mixture that was directly put onto a cover slip in a 6-well plate (also kept cold). Thereafter, the solution was sandwiched between two cover slips and the well plate was transferred to a 37° C. incubator. The volume of the suspension was chosen (500 μL) in order to obtain hydrogel thickness in the range of 3 mm. […] To evaluate proliferation, total double-stranded DNA content was determined by using the PicoGreen assay as previously reported.
MTT Assay. As described in literature, briefly, cell viability was determined by the 3-(4,5-dimethylthiazol-2-yl)-2,5-diphenyltetrazolium bromide (MTT) assay and the data are presented as a percentage of control viability.
Live/Dead Staining. Cell viability was determined with the live/dead viability/cytotoxicity kit (Molecular Probes), according to the manufacturer's protocol.

In the case of `CC(=O)O[C@H]1C(=O)[C@@]2(C)[C@H]([C@H](OC(=O)c3ccccc3)[C@]3(O)C[C@H](OC(=O)[C@H](O)[C@@H](NC(=O)c4ccccc4)c4ccccc4)C(C)=C1C3(C)C)[C@]1(OC(C)=O)CO[C@@H]1C[C@@H]2O` [Taxol], in the data set on hMSCs [1] (50 nM), the “hMSCs commitment after Taxol treatment” value is “decrease in hMSCs commitment”. The “cell viability after Taxol treatment” value in the data set on hMSCs [2] was “did not affect cell viability”.

On to `C=C1[C@@H](C)[C@H]2[C@H](Cc3ccccc3)NC(=O)[C@]23[C@H](OC(C)=O)/C=C/[C@@](C)(O)C(=O)[C@@H](C)C/C=C/[C@H]3[C@@H]1O` [cytochalasin-D], for which the “hMSCs commitment after cytochalasin-D treatment” value with hMSCs [1] (1 μM, towards both osteogenesis and adipogenesis) is listed as “overall decreased commitment”.

With `Cc1ccc2c(c1)C(=O)C1(O)CCN(c3ccccc3)C1=N2` (centres unmarked) [blebbistatin], in the data set on hMSCs [1] (50 μM, all the polymer gels), the “STRO-1 in encapsulated cells in presence of blebbistatin” value is recorded as “high levels of STRO-1” and the “hMSCs commitment in presence of blebbistatin” value was “inhibited the hMSCs commitment”.
